# Test results as given in patent publication US20260294874A1, “COMPOSITIONS COMPRISING MODULATORS OF RIBONUCLEOPROTEIN GRANULE FORMATION AND DISSOLUTION AND METHODS OF USE THEREOF” (University of Virginia Patent Foundation, priority 2023, published 2026).
# “Also recorded” adds a separate entry of the source.
# What was measured:
# Type in all cases: cell-based
# HSPB1 K123 = target: T1, HSPB1 K123 (Homo sapiens, UniProt P04792); assay: Competitive ABPP SILAC LC-MS/MS chemical proteomics, HSPB1 K123; conditions: 25 μM, 2 h; HHS-465 100 μM; DMSO (light)/ligand (heavy)
# T1 construct: endogenous in cells; host or cells: SILAC cells (HeLa and HEK293T are named; HeLa inferred for HSPB1/EKT179, as SG modulators were profiled in HeLa)
# Protocol: (§1) Preparation of SILAC proteomes for LC-MS/MS analysis. SILAC cell proteomes were fractionated to collect the supernatant and normalized to 2.3 mg/mL in PBS. ‘Heavy’ and ‘light’ proteomes were aliquoted (427 μL) and probe-modified proteins were conjugated to desthiobiotin-PEG-3-azide using copper-catalyze azide-alkyne cycloaddition, trypsinized into peptides using Trypsin/Lys-C Mix (Catalog No. V5071; Promega Corporation, Madison, Wisconsin, United States of America), enriched using PIERCE™ Avidin Agarose brand beads (Catalog No. 20219; Thermo Fisher Scientific Inc., Waltham, Massachusetts. United States of America), and prepared for nano-electrospray ionization-LC-MS/MS analysis as previously described in Hahm et al., 2020.
# (§2) Data Analysis—Chemical Proteomics. Identification and analysis of peptides and proteins using LC-MS was accomplished using bioinformatics software and quality control parameter protocols as previously described in Hahm et al., 2020.
# (§3) We performed quantitative liquid-chromatography tandem mass spectrometry (LC-MS/MS) chemical proteomic studies to identify the target protein and binding site(s) of SuTEx fragments with RNP granule modulating activity. […]
# (§4) We detected ~8,700 probe-modified sites (Tyr and Lys) in our aggregate HeLa and HEK293T chemical proteomic analyses. […]
# EDC3 Y475 = target: T2, EDC3 Y475 (Homo sapiens, UniProt Q96F86); assay: Competitive ABPP SILAC LC-MS/MS chemical proteomics, EDC3 Y475; conditions: glucose-deprived HEK293T cells, 25 μM, 2 h
# T2 sequence (Q96F86 1-508): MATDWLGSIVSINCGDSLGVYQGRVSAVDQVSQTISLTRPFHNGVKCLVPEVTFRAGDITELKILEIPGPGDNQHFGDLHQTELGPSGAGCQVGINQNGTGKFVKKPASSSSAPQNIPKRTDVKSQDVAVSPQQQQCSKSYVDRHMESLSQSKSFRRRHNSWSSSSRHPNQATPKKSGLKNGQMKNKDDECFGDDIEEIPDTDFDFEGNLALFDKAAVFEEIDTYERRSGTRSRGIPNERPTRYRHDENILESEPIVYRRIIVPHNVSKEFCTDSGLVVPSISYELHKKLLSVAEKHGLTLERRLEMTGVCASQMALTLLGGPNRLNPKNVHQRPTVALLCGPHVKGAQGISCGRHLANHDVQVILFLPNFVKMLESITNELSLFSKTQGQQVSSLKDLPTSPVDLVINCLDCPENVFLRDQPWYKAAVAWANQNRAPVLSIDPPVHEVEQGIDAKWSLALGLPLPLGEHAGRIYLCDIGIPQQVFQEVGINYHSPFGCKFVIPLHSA
# Protocol: as §1, §2
# We performed quantitative liquid-chromatography tandem mass spectrometry (LC-MS/MS) chemical proteomic studies to identify the target protein and binding site(s) of SuTEx fragments with RNP granule modulating activity. […] SILAC light and heavy cells (HEK293T and HeLa) were treated with experimental conditions used for phenotypic screening including the SuTEx ligand pretreatment (25 μM, 2 h) followed by PB (glucose-deprivation, 15 min) and SG induction (75 μM [COMPOUND LEFT OUT], 30 min). Afterwards, cells were lysed, soluble proteomes treated with HHS-465 SuTEx probe (100 μM, 1 h), a global Tyr/Lys-reactive probe used previously for RNP granule investigations (Ciancone et al., 2022), and samples processed to probe-modified peptides for LC-MS/MS analysis as previously reported (Huang et al., 2021), shown in FIG. 10.
# as §4
# recombinant EDC3 = target: T3, recombinant EDC3 (Homo sapiens, UniProt Q96F86); assay: Competitive gel-based ABPP, HHS-465 probe labeling of recombinant EDC3 in HEK293T cells; conditions: 25 μM, 2 h (FIG. 4F); 0.1-100 μM for concentration dependence (FIG. 4D); HHS-465 100 μM, 1 h, RT
# T3 construct: FLAG; expressed in transfected cells; host or cells: HEK293T
# T3 sequence (Q96F86 1-508): T2 sequence (Q96F86 1-508)
# From the text: FIGS. 4A-4F. Discovery of a SuTEx ligand for the hyper-reactive EDC3 Y475 site. (FIG. 4A) Overlap of liganded sites from SuTEx PB modulators with reported RNA granule induction-sensitive lysine and tyrosine sites (RISKYs; Ciancone et al., 2022). The five overlapping sites were further compared to previously reported hyper-RISKY sites (Ciancone et al., 2022) resulting in the identification of the tyrosine-475 (Y475) site on EDC3. (FIG. 4B) Representative immunofluorescence images depicting decreased PBs and increased SGs in AHL-030-treated cells under stress conditions. EKT235 is shown as a negative control. See FIGS. 8 and 9 for additional details. (FIG. 4C) Representative MS1 extracted ion chromatograms (EICs) showing EDC3 Y475 (i.e., amino acid 2 of the peptide sequence […]; SEQ ID NO: 1, which corresponds to amino acids 474-500 of the human enhancer of mRNA-decapping protein 3 isoform 1 polypeptide of GENBANK® Accession No. NP_001135915.1) is liganded by AHL-030 but not EKT235 [SILAC ratio or SR>2 for DMSO vehicle (light, red)/SuTEx fragment ligand (heavy, blue) treatment conditions]. Enrichment (HHS-465/DMSO) and 1:1 (HHS-465/HHS-465) controls are shown. SRs are calculated as the integrated area under the curve ratio of light-to-heavy peptide. Data are representative of n=2-3 biologically independent replicates. […] EDC3-expressing HEK293T cells were pretreated with varying concentrations of AHL-030 (0.1-100 μM, 2 hours) followed by lysis and probe labeling of soluble proteomes with HHS-465 (100 μM, 1 h, RT). The in situ IC50 for EDC3 probe labeling inhibition by AHL-030 was estimated to be ~6 μM. […] Data shown are mean±SEM and representative of n=3 biologically independent replicates. […] Western blots comparing recombinant expression of EDC3 (α-FLAG) and loading controls (α-GAPDH) are shown. Data are representative of n=2 biologically independent replicates.
# Among the candidate PB-modulating SuTEx compounds, we focused on AHL-030 because of its PB-inhibitory, SG-enhancing activity in stressed cells and ability to ligand the EDC3 Y475 site (SR >2; FIGS. 4B and 4C). Importantly, we identified a restricted number of reproducibly liganded sites (7 in total) in addition to EDC3 Y475 in chemoproteomic profiling studies of AHL-030 (FIG. 12). We further confirmed AHL-030 as an EDC3 ligand using competitive activity-based protein profiling (ABPP; Grams & Hsu, 2022). Recombinant EDC3-expressing HEK293T cells were treated with a panel of RNP granule modulators including AHL-030 and the negative control compound EKT235 to evaluate structure-activity relationships (SAR, 25 μM compounds, 2 h). Cells were lysed and soluble proteomes labeled with HHS-465 (100 μM, 1 h, RT) followed by CuAAC with rhodamine-azide, SDS-PAGE and in-gel fluorescence scanning. […] Using the in vitro IC50, we calculated the lipophilic efficiency (LipE) of AHL-030 to be ~7, which falls in the range of acceptable lipophilicity in relation to potency (Leeson & Springthorpe, 2007).
# [1] = tested on: stress granules (G3BP1 foci) in HeLa cells; assay: Immunofluorescence phenotypic screen for stress granules (α-G3BP1) in stressed HeLa cells; conditions: 2 h
# Protocol: SuTEx compound treatments. Prior to treatments, cells were washed twice with warm phosphate-buffered saline (PBS) and exchanged with serum-free DMEM (supplemented with 1% L-glutamine) for at least 30 minutes at 37° C. with 5% CO2. Compounds were then added as 1000×DMSO stocks (10 μL for 10 cm dishes and 3 μL for 6-well dishes), plates were mixed gently, and cells were incubated for two hours. All compounds were thoroughly vortexed and sonicated for five minutes prior to addition to ensure complete solvation. For microscopy experiments, cultures were seeded at 150,000 cells in 3 mL of DMEM in 6-well THERMO SCIENTIFIC™ BIOLITE™ brand microwell plates (Catalog No. 12556004; Thermo Fisher Scientific Inc., Waltham, Massachusetts. United States of America). For collection, media was aspirated, and cells were washed once with cold PBS before scraping from plates. Cells were centrifuged at 500×g at 4° C. for 5 minutes and supernatant was removed. Cell pellets were resuspended in cold PBS (1 mL) and centrifuged at 1,400×g at 4° C. for 3 minutes. Supernatant was again removed, and pellets were then snap-frozen in liquid nitrogen and stored at −80° C. until needed.
# Immunofluorescence. Immunofluorescence (IF) of HEK293T cells was performed as previously described in Ciancone et al., 2022. HeLa cells were seeded at 9.0×10^4 in a 24-well plate with 12-mm glass coverslips. The next day, the cells were treated with 25 μM SuTEx probe for 2 hours in DMEM medium without FBS. The cells were then treated with 75 μM NaAsO2 for 30 minutes and fixed with 3% paraformaldehyde in PBS for 15 minutes at room temperature (RT) and washed with PBS twice. The fixed cells were permeabilized with PBST (0.1% Triton X-100) for 15 minutes at room temperature and blocked with 5% goat serum in PBST for 30 minutes at RT. The cells were incubated with anti-G3BP1 antibody H-10 (Catalog No. sc-365338 at 1:200 dilution; Santa Cruz Biotechnology, Inc., Dallas, Texas, United States of America) for 2 hours at RT and washed with PBST (0.1% Tween-20) for 5 minutes three times. Next, cells were incubated with goat anti-mouse Alexa 594 antibody (Catalog No. 115-585-003 at 1:800 dilution; Jackson ImmunoResearch, West Grove, Pennsylvania, United States of America) for 30 minutes at RT. The cells were washed twice with PBST, stained with Hoechst 33342 (Catalog No. H3570 at […]; Thermo Fischer Scientific) in PBST for 5 minutes, and washed with PBS twice for 5 minutes. The coverslips were mounted in PROLONG™ Gold AntiFade Mountant (Catalog No. P36930, Thermo Fisher Scientific) and imaged using NIS Elements AR software and a Nikon Eclipse Ti microscope equipped with a ×100 objective and CMOS camera. […] A CellProfiler pipeline was developed to quantify the number of stress granules under each condition. Briefly, cells were recognized as blue^+ (nuclei) red^+ (G3BP1) objects, and the red^+ granules that meet the shape and size threshold were identified and counted. Cells on the border of linages were excluded from the analysis for more accurate quantification.
# We used immunofluorescence (IF) detection for phenotypic screening of SuTEx compound activity on stress-induced PB and SG levels in cells (FIG. 1B). PBs were induced through glucose deprivation of HEK293T cells and detected by immunofluorescence with anti-enhancer of mRNA-decapping protein 4 (EDC4) as previously described (Kedersha & Anderson, 2007; Ciancone et al., 2022) (~4 vs 2 PBs/cell in −glucose and +glucose conditions, respectively; FIG. 8). EDC4 is an established PB marker for mammalian cells and is important for PB formation (Kedersha & Anderson, 2007; Luo et al., 2018). SGs were induced in HeLa cells by [COMPOUND LEFT OUT] treatments and detected by fluorescent staining with anti-Ras GTPase-activating protein-binding protein 1 (G3BP1) antibody (75 μM [COMPOUND LEFT OUT], 30 min; FIG. 9). G3BP1 foci have been used in previous IF studies to identify SGs in cells (Kedersha & Anderson, 2007). […]
# HNRPK Y72 = target: T4, HNRPK Y72 (Homo sapiens, UniProt P61978); assay: Competitive ABPP SILAC LC-MS/MS chemical proteomics, HNRPK Y72; conditions: DMSO (light)/ligand (heavy)
# T4 construct: liganded site Y72
# Protocol: as §1, §2, §3, §4
# T1 sequence (P04792 whole entry): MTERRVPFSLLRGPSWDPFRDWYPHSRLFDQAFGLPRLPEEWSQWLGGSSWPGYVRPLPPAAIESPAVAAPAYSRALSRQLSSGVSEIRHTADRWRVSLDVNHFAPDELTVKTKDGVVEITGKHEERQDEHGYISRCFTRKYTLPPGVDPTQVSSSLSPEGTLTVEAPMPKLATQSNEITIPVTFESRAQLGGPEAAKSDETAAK
structure (smiles),measurement,setting,value
"O=S(=O)(C1CC1)n1cc(-c2cccc(F)c2)nn1 [EKT179, 1-(Cyclopropylsulfonyl)-4-(3-fluorophenyl)-1H-1,2,3-triazole]","SILAC ratio (SR), HSPB1 K123",HSPB1 K123,> 2
"O=S(=O)(C1CC1)n1cc(-c2ccc(-c3ccccc3)cc2)nn1 [EKT235, 4-([1,1′-Biphenyl]-4-yl)-1-(cyclopropylsulfonyl)-1H-1,2,3-triazole]",liganding of EDC3 Y475 (in words),EDC3 Y475,not
same,inhibition of HHS-465 probe labeling of recombinant EDC3 (in words),recombinant EDC3,largely inactive
"O=S(=O)(c1ccc(C(F)(F)F)cc1)n1cc(-c2ccc(F)cc2F)nn1 [EKT166, 4-(2,4-Difluorophenyl)-1-((4-(trifluo•·omethyl)phenyl)sulfonyl)-1H-1,2,3-triazole]",effect on SGs (in words),[1]; 25 μM,enriched activity; also recorded: inhibited SGs
same,inhibition at 25 µM,"[1]; Homo sapiens, read-out: reduction/inhibition of SGs/cell",> 70%
same,"SILAC ratio (SR), HNRPK Y72",HNRPK Y72,> 2
